Data from ChEMBL document CHEMBL1201862, “PubChem BioAssay data set” (2004).
Structures can show the parent of a compound that is named as a salt.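 Method: 48-hour compound exposure of cells in 96-well plates, five concentrations, linear interpolation of endpoints. GI50 = concentration required for 50% inhibition of growth.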 Active and inactive are the calls of the source. No stated cut-off is given here; in the data, active = GI50 up to about 1.1 µM and inactive = higher.

Key:
Experiment in all cases: DTP human tumour cell line panel, 48 h
OVCAR-5 = test system: OVCAR-5
HT-29 = test system: HT-29
MDA-MB-435 = test system: MDA-MB-435
OVCAR-8 = test system: OVCAR-8
COLO 205 = test system: COLO 205
TK-10 = test system: TK-10
PC-3 = test system: PC-3
SF-295 = test system: SF-295
OVCAR-3 = test system: OVCAR-3
T47D = test system: T47D
MDA-MB-231 = test system: MDA-MB-231
SNB-75 = test system: SNB-75
SNB-19 = test system: SNB-19
SK-MEL-5 = test system: SK-MEL-5
SN12C = test system: SN12C
HOP-92 = test system: HOP-92
NCI-H226 = test system: NCI-H226
HL-60 = test system: HL-60
HCC 2998 = test system: HCC 2998

Measured: GI50

CC(=O)C(=N\Nc1ccc(Cl)cc1)/C(C)=N/c1ccc(C)cc1
inactive: OVCAR-5 34 µM | HT-29 22.5 µM | MDA-MB-435 30.4 µM | OVCAR-8 35.6 µM | COLO 205 21.3 µM | TK-10 33.5 µM | PC-3 28.6 µM | SF-295 32.4 µM | OVCAR-3 24.6 µM | T47D 38.5 µM | MDA-MB-231 37.5 µM | SNB-75 44 µM | SNB-19 63.1 µM | SK-MEL-5 19 µM | SN12C 45.7 µM | HOP-92 16.6 µM | NCI-H226 29.6 µM

NCCN1C(=O)c2ccccc2C1(O)c1ccc(Cl)cc1 (configuration not stated)
inactive: OVCAR-5 19.7 µM | HT-29 19.6 µM | MDA-MB-435 15.3 µM | OVCAR-8 37.2 µM | HL-60 52.8 µM | COLO 205 19.6 µM | TK-10 17.9 µM | PC-3 20.3 µM | SF-295 21.9 µM | OVCAR-3 23.6 µM | T47D 19.4 µM | MDA-MB-231 15.5 µM | SNB-75 21.9 µM | SNB-19 23.1 µM | SK-MEL-5 16.4 µM | SN12C 35.2 µM | HOP-92 10.4 µM | NCI-H226 48.8 µM

Oc1ccc(C(O)C2CCCCN2)cc1O (configuration not stated) [RIMITEROL HYDROBROMIDE]
inactive: OVCAR-5 > 100 µM | HT-29 > 100 µM | MDA-MB-435 > 100 µM | OVCAR-8 > 100 µM | COLO 205 > 100 µM | TK-10 > 100 µM | PC-3 > 100 µM | SF-295 > 100 µM | OVCAR-3 > 100 µM | T47D 23.8 µM | MDA-MB-231 > 100 µM | SNB-75 > 100 µM | SNB-19 > 100 µM | SK-MEL-5 > 100 µM | SN12C > 100 µM | HOP-92 > 100 µM | NCI-H226 > 100 µM

CC1(C)CCCCCCC2CC2CCCCCC(C)(C)C1=O (configuration not stated)
inactive: OVCAR-5 > 100 µM | HT-29 42 µM | MDA-MB-435 49.9 µM | OVCAR-8 > 100 µM | HL-60 16.6 µM | COLO 205 63.1 µM | TK-10 > 100 µM | PC-3 > 100 µM | SF-295 > 100 µM | OVCAR-3 76.4 µM | T47D 36.9 µM | MDA-MB-231 60.3 µM | SNB-75 > 100 µM | SNB-19 > 100 µM | SK-MEL-5 49.7 µM | SN12C > 100 µM | HOP-92 62.5 µM | NCI-H226 > 100 µM

O=C1COc2cccnc2N1CCCCO
inactive: OVCAR-5 > 100 µM | MDA-MB-435 > 100 µM | HL-60 > 100 µM | TK-10 > 100 µM | PC-3 > 100 µM | SF-295 > 100 µM | OVCAR-3 > 100 µM | T47D 38.1 µM | MDA-MB-231 > 100 µM | SNB-75 > 100 µM | SNB-19 > 100 µM | SK-MEL-5 > 100 µM | SN12C > 100 µM | HOP-92 > 100 µM

CC(=O)c1c(CO[N+](=O)[O-])[n+]([O-])c2ccccc2[n+]1[O-]
inactive: OVCAR-5 > 100 µM | HT-29 > 100 µM | MDA-MB-435 79.6 µM | OVCAR-8 > 100 µM | COLO 205 61 µM | TK-10 > 100 µM | PC-3 > 100 µM | SF-295 > 100 µM | OVCAR-3 52.8 µM | T47D 61.4 µM | MDA-MB-231 53.7 µM | SNB-75 > 100 µM | SNB-19 > 100 µM | SK-MEL-5 68.1 µM | SN12C 64.1 µM | HOP-92 > 100 µM | NCI-H226 34.2 µM

COc1ccccc1N1C(=O)CSC1c1cccc(Oc2ccccc2)c1 (configuration not stated)
inactive: OVCAR-5 18.5 µM | HT-29 20.1 µM | MDA-MB-435 9.82 µM | OVCAR-8 17.9 µM | HL-60 20.9 µM | COLO 205 18.6 µM | TK-10 25.4 µM | PC-3 17.6 µM | SF-295 19.4 µM | OVCAR-3 21.1 µM | T47D 18.3 µM | MDA-MB-231 16.4 µM | SNB-75 18.7 µM | SNB-19 23.8 µM | SK-MEL-5 16.3 µM | SN12C 17.2 µM | HOP-92 12.7 µM | NCI-H226 20.3 µM

COc1cc2c(c(OC)c1OC)C(=O)[C@@H]1[C@H]2N1C(N)=O
inactive: OVCAR-5 87.3 µM | HT-29 > 100 µM | MDA-MB-435 > 100 µM | OVCAR-8 > 100 µM | HL-60 > 100 µM | COLO 205 91.2 µM | TK-10 > 100 µM | PC-3 > 100 µM | SF-295 > 100 µM | OVCAR-3 > 100 µM | T47D > 100 µM | MDA-MB-231 > 100 µM | SNB-75 66.2 µM | SNB-19 > 100 µM | SK-MEL-5 77.4 µM | SN12C > 100 µM | HCC 2998 68.4 µM | NCI-H226 > 100 µM
